# Data published in patent US20090054392A1, “NAPHTHYLPYRIMIDINE, NAPHTHYLPYRAZINE AND NAPHTHYLPYRIDAZINE ANALOGS AND THEIR USE AS AGONISTS OF THE WNT-BETA-CATENIN CELLULAR MESSAGING SYSTEM” (Wyeth, priority 2007, published 2009).
# Like-named read-outs stand apart in the source and are kept apart here.
# Test system: Dkk1-LRP5-TCF-Luciferase
# Assay: Functional Dkk1-LRP5-TCF-Luciferase Assay in U2OS Cells
# Conditions: for fold induction at 2 µM / fold induction at 20 µM / EC50: Homo sapiens, U2OS; for A = MAX FOLD Induction/DMSO CONTROL: maximum fold induction over DMSO control
# [1] = read-out: B = TCF ACTIVITY/DMSO CONTROL Fold induction @ 2.0 uM, 2.0 uM compound
# [2] = read-out: C = TCF ACTIVITY/DMSO CONTROL Fold induction @ 20.0 uM, 20.0 uM compound
SMILES,fold induction at 2 µM [1],fold induction at 20 µM [2],EC50,A = MAX FOLD Induction/DMSO CONTROL,fold induction at 2 µM (read-out: B = TCF ACTIVITY/DMSO CONTROL Fold induction @ 2.0 uM),fold induction at 20 µM (read-out: C = TCF ACTIVITY/DMSO CONTROL Fold induction @ 20.0 uM)
"CCN(CC)C(=O)N[C@H]1CCN(c2nccc(-c3ccc4ccccc4c3)n2)C1 [N,N-diethyl-N′-{(3S)-1-[4-(2-naphthyl)pyrimidin-2-yl]pyrrolidin-3-yl}urea]",1.83,–,–,–,–,–
CN(c1nccc(-c2ccc3ccccc3c2)n1)C1CCN(Cc2ccccc2)CC1 [N-(1-benzylpiperidin-4-yl)-N-methyl-4-(2-naphthyl)pyrimidin-2-amine],1.55,1.24,–,–,–,–
CN(c1nccc(-c2ccc3ccccc3c2)n1)C1CCN(S(C)(=O)=O)CC1 [N-methyl-N-[1-(methylsulfonyl)piperidin-4-yl]-4-(2-naphthyl)pyrimidin-2-amine],1.24,0.77,–,–,–,–
NCC1CCN(c2nccc(-c3ccc4cc(-c5ccccc5)ccc4c3)n2)CC1 [1-{1-[4-(6-phenyl-2-naphthyl)pyrimidin-2-yl]piperidin-4-yl}methanamine],1.63,–,–,–,–,–
"NC(=O)N1CCCN(c2nccc(-c3ccc4ccccc4c3)n2)CC1 [4-[4-(2-naphthyl)pyrimidin-2-yl]-1,4-diazepane-1-carboxamide]",1.5,1.79,0.32 µM,2.050 fold,–,–
"CCN(CC)C(=O)N1CCCN(c2nccc(-c3ccc4ccccc4c3)n2)CC1 [N,N-diethyl-4-[4-(2-naphthyl)pyrimidin-2-yl]-1,4-diazepane-1-carboxamide]",–,1.49,30 µM,3.070 fold,–,–
Cc1ccc(S(=O)(=O)N[C@@H]2CCN(c3nccc(-c4ccc5ccccc5c4)n3)C2)cc1 [4-methyl-N-{(3R)-1-[4-(2-naphthyl)pyrimidin-2-yl]pyrrolidin-3-yl}benzenesulfonamide],1.44,0.09,–,–,–,–
c1ccc2cc(-c3ccnc(N4CC[C@H](CN5CCCC5)C4)n3)ccc2c1 [4-(2-naphthyl)-2-[(3R)-3-(pyrrolidin-1-ylmethyl)pyrrolidin-1-yl]pyrimidine],1.5,6.07,7.67 µM,6.053 fold,–,–
CN1CCN(c2nccc(-c3ccc4ccccc4c3)n2)CC1 [2-(4-methylpiperazin-1-yl)-4-(2-naphthyl)pyrimidine],1.16,1.81,15.5 µM,2.960 fold,–,–
"c1ccc2cc(-c3ccnc(N4CC[C@@H](N5CCCC5)C4)n3)ccc2c1 [(3′R)-1′-[4-(2-naphthyl)pyrimidin-2-yl]-1,3′-bipyrrolidine]",1.38,2.62,–,2.760 fold,–,–
CN[C@H]1CCN(c2nccc(-c3ccc4ccccc4c3)n2)C1 [(3S)—N-methyl-1-[4-(2-naphthyl)pyrimidin-2-yl]pyrrolidin-3-amine],1.75,–,–,–,–,–
c1ccc2cc(-c3ccnc(N4CC[C@H](n5ccnc5)C4)n3)ccc2c1 [2-[(3S)-3-(1H-imidazol-1-yl)pyrrolidin-1-yl]-4-(2-naphthyl)pyrimidine],1.29,3.92,3.93 µM,3.800 fold,–,–
NCCN1CCN(c2nccc(-c3ccc4ccccc4c3)n2)CC1 [(2-{4-[4-(2-naphthyl)pyrimidin-2-yl]piperazin-1-yl}ethyl)amine],–,–,–,–,1,1.79
NCC1CCN(Cc2nccc(-c3ccc4ccccc4c3)n2)CC1 [1-(1-{[4-(2-naphthyl)pyrimidin-2-yl]methyl}piperidin-4-yl)methanamine],1.41,1.77,–,–,–,–
COC(=O)N[C@@H]1CCN(c2nccc(-c3ccc4ccccc4c3)n2)C1 [methyl {(3R)-1-[4-(2-naphthyl)pyrimidin-2-yl]pyrrolidin-3-yl}carbamate],2.2,0.43,–,0.890 fold,–,–
CN1CCN(CC2CCN(c3nccc(-c4ccc5ccccc5c4)n3)CC2)CC1 [2-{4-[(4-methylpiperazin-1-yl)methyl]piperidin-1-yl}-4-(2-naphthyl)pyrimidine],5.46,–,1.19 µM,5.430 fold,–,–
CN1CCN([C@@H]2CCN(c3nccc(-c4ccc5ccccc5c4)n3)C2)CC1 [2-[(3R)-3-(4-methylpiperazin-1-yl)pyrrolidin-1-yl]-4-(2-naphthyl)pyrimidine],3.67,0.01,–,1.020 fold,–,–
CC(C)(C)NC[C@H]1CCN(c2nccc(-c3ccc4ccccc4c3)n2)C1 [2-methyl-N-({(3R)-1-[4-(2-naphthyl)pyrimidin-2-yl]pyrrolidin-3-yl}methyl)propan-2-amine],2.24,0.01,–,2.300 fold,–,–
c1ccc2cc(-c3ccnc(N4CC[C@@H](NCCN5CCOCC5)C4)n3)ccc2c1 [(3R)—N-(2-morpholin-4-ylethyl)-1-[4-(2-naphthyl)pyrimidin-2-yl]pyrrolidin-3-amine],1.71,0.21,–,–,–,–
CC(C)CNCC1CCN(c2nccc(-c3ccc4ccccc4c3)n2)CC1 [2-methyl-N-({1-[4-(2-naphthyl)pyrimidin-2-yl]piperidin-4-yl}methyl)propan-1-amine],1.4,0.14,–,1.480 fold,–,–
CN(CCCO)[C@H]1CCN(c2nccc(-c3ccc4ccccc4c3)n2)C1 [3-(methyl{(3S)-1-[4-(2-naphthyl)pyrimidin-2-yl]pyrrolidin-3-yl}amino)propan-1-ol],1.1,–,–,–,–,–
CO[C@@H]1CCN(c2nccc(-c3ccc4ccccc4c3)n2)C1 [2-[(3R)-3-methoxypyrrolidin-1-yl]-4-(2-naphthyl)pyrimidine],1.36,3.1,0.659 µM,1.990 fold,–,–
"CN(C)C(=O)N[C@@H]1CCN(c2nccc(-c3ccc4ccccc4c3)n2)C1 [N,N-dimethyl-N′-{(3R)-1-[4-(2-naphthyl)pyrimidin-2-yl]pyrrolidin-3-yl}urea]",1.79,0.26,–,–,–,–
CC(C)(C)NCC1CCN(c2nccc(-c3ccc4ccccc4c3)n2)C1 (centres unmarked) [2-methyl-N-({1-[4-(2-naphthyl)pyrimidin-2-yl]pyrrolidin-3-yl}methyl)propan-2-amine],1.99,0.018,1.37 µM,3.106 fold,–,–
Cc1ccc(S(=O)(=O)N2CCC(CNc3nccc(-c4ccc5ccccc5c4)n3)CC2)cc1 [N-({1-[(4-methylphenyl)sulfonyl]piperidin-4-yl}methyl)-4-(2-naphthyl)pyrimidin-2-amine],1.17,0.92,–,–,–,–
"N[C@H]1CC[C@H](Nc2nccc(-c3ccc4ccccc4c3)n2)CC1 [trans-N-[4-(2-naphthyl)pyrimidin-2-yl]cyclohexane-1,4-diamine]",1.91,3.95,3.7 µM,4.730 fold,–,–
N=C(N)OC(=N)NCCN1CCN(c2nccc(-c3ccc4ccccc4c3)n2)CC1 [N-(2-{4-[4-(2-naphthyl)pyrimidin-2-yl]piperazin-1-yl}ethyl)dicarbonimidic diamide],1.22,0.49,–,–,–,–
